The values below come from ChEMBL document CHEMBL2046291, “Potent inhibition of norovirus 3CL protease by peptidyl α-ketoamides and α-ketoheterocycles” (Bioorg Med Chem Lett, 2012).

For assay [1], the system named is Norovirus. Briefly: Antiviral activity against Norovirus infected in human HG23 cells. The format is functional. The note with it: read-out: ED50 (the source's name).
The nature of assay [2]: Inhibition of Norovirus recombinant 3CL protease using Edans-EPDFHLQGPEDLAK-Dabcyl as substrate for 30 mins by fluorometry.

For `CC(C)C[C@H](NC(=O)OCc1ccccc1)C(=O)N[C@@H](CC1CCNC1=O)C(=O)C(=O)NC(C)C` (stereo not given in full), the EC50 in assay [1] came out at 2.8 µM. Further, the IC50 in assay [2] stood at 5.3 µM.
`CC(C)C[C@H](NC(=O)OCc1ccccc1)C(=O)N[C@@H](CC1CCNC1=O)C(=O)C(=O)NCc1ccccc1` (stereo not given in full): the EC50 in assay [1] came to 1.8 µM. Moreover, the IC50 in assay [2] is 7.1 µM.
Regarding `CC(C)C[C@H](NC(=O)OCc1ccccc1)C(=O)N[C@@H](CC1CCNC1=O)C(O)C(=O)NC(C)C` (stereo not given in full), the EC50 in assay [1] was 4.1 µM. For the same compound, in assay [2], the IC50 was determined as 45.3 µM.
The matching figures for `CC(C)C[C@H](NC(=O)OCc1ccccc1)C(=O)N[C@@H](CC1CCNC1=O)C(O)C(=O)NC1CC1` (stereo not given in full): over 10 µM and over 50 µM.
As for `CC(C)C[C@H](NC(=O)OCc1ccccc1)C(=O)N[C@@H](CC1CCNC1=O)C(=O)C(=O)NC1CC1` (stereo not given in full), the EC50 in assay [1] is 1.1 µM. Also, the IC50 in assay [2] was found to be 3.4 µM.
Taken in the same sequence, the figures for `CCCCNC(=O)C(O)[C@H](CC1CCNC1=O)NC(=O)[C@H](CC(C)C)NC(=O)OCc1ccccc1` (stereo not given in full) were over 20 µM and over 50 µM.
For the compound `CCCCNC(=O)C(=O)[C@H](CC1CCNC1=O)NC(=O)[C@H](CC(C)C)NC(=O)OCc1ccccc1` (stereo not given in full), in assay [1], the EC50 came out at 1.3 µM. Moreover, the IC50 in assay [2] was 4.1 µM.
In the case of `CCOC(=O)CNC(=O)C(O)[C@H](CC1CCNC1=O)NC(=O)[C@H](CC(C)C)NC(=O)OCc1ccccc1` (stereo not given in full), the EC50 in assay [1] is over 10 µM. In addition, the IC50 in assay [2] was over 50 µM.
Take `CCOC(=O)CNC(=O)C(=O)[C@H](CC1CCNC1=O)NC(=O)[C@H](CC(C)C)NC(=O)OCc1ccccc1` (stereo not given in full): the EC50 in assay [1] came to 0.8 µM. For the same compound, in assay [2], the IC50 was found to be 2.1 µM.
As to `CC(C)C[C@H](NC(=O)OCc1ccccc1)C(=O)N[C@@H](CC1CCNC1=O)C(O)C(=O)NC1CCCCC1` (stereo not given in full), the EC50 in assay [1] was over 20 µM. Moreover, the IC50 in assay [2] was over 50 µM.
The matching figures for `CC(C)C[C@H](NC(=O)OCc1ccccc1)C(=O)N[C@@H](CC1CCNC1=O)C(=O)C(=O)NC1CCCCC1` (stereo not given in full): 1.2 µM and 3.5 µM.
Regarding `CC(C)C[C@H](NC(=O)OCc1ccccc1)C(=O)N[C@@H](CC1CCNC1=O)C(O)C(=O)NCc1ccccc1` (stereo not given in full), the EC50 in assay [1] was over 20 µM. In addition, the IC50 in assay [2] is over 50 µM.
On to `CC(C)C[C@H](NC(=O)OCc1ccccc1)C(=O)N[C@@H](CC1CCNC1=O)C(O)C(=O)NC(C)(C)C` (stereo not given in full), for which, in assay [1], the EC50 was over 20 µM. The IC50 in assay [2] is over 50 µM.
The matching figures for `CC(C)C[C@H](NC(=O)OCc1ccccc1)C(=O)N[C@@H](CC1CCNC1=O)C(=O)C(=O)NC(C)(C)C` (stereo not given in full): 1.1 µM and 2.8 µM.
With `CC(C)NC(=O)C(O)[C@H](CC1CCNC1=O)NC(=O)[C@H](Cc1ccccc1)NC(=O)OCc1ccccc1` (stereo not given in full), in assay [1], the EC50 turned out to be 6.3 µM. Besides, the IC50 in assay [2] was determined as 23.1 µM.
Regarding `CC(C)NC(=O)C(=O)[C@H](CC1CCNC1=O)NC(=O)[C@H](Cc1ccccc1)NC(=O)OCc1ccccc1` (stereo not given in full), the EC50 in assay [1] amounted to 4.2 µM. Besides, the IC50 in assay [2] was found to be 21.5 µM.
As to `CC(C)C[C@H](NC(=O)OCc1ccccc1)C(=O)N[C@@H](CC1CCNC1=O)C(O)c1ncco1` (stereo not given in full), the EC50 in assay [1] is over 20 µM. In assay [2], the half-maximal inhibitory concentration (IC50) is over 50 µM.
Regarding `CC(C)C[C@H](NC(=O)OCc1ccccc1)C(=O)N[C@@H](CC1CCNC1=O)C(=O)c1ncco1` (stereo not given in full), the EC50 in assay [1] is 0.9 µM. The concentration for half-maximal inhibition (IC50) in assay [2] came to 2.3 µM.
Taken in the same sequence, the figures for `CC(C)C[C@H](NC(=O)OCc1ccccc1)C(=O)N[C@@H](CC1CCNC1=O)C(O)c1nccs1` (stereo not given in full) were 4.3 µM and 12.3 µM.
Take `CC(C)C[C@H](NC(=O)OCc1ccccc1)C(=O)N[C@@H](CC1CCNC1=O)C(=O)c1nccs1` (stereo not given in full): the EC50 in assay [1] was determined as 4.2 µM. The IC50 in assay [2] is 8.8 µM.

As a reminder, the IC50 is the concentration that inhibits the measured activity by half.
